Laboratory results taken from EP0850306B1, “LACCASES WITH AN ALTERED pH ACTIVITY PROFILE” (Novozymes Biotech, Inc., priority 1995, dated 1997).
Read-outs that look alike come from different tables or passages of the source.

Tests used:
[1] = target: T1, Rhizoctonia solani laccase isozyme 4 (RsL, rsl4), wild type (pJiWa59), SEQ ID NOS:24 and 25 (Thanatephorus cucumeris, UniProt Q02081); test: Laccase substrate oxidation kinetics (Km, kcat), RsL wild type; format: biochemical; settings: read-out: Km (ABTS); 8 mM MES-NaOH buffer, pH 5.3; spectroscopic
T1 construct: made in house; host or cells: Aspergillus oryzae HowB104
T1 sequence (Q02081 20-531): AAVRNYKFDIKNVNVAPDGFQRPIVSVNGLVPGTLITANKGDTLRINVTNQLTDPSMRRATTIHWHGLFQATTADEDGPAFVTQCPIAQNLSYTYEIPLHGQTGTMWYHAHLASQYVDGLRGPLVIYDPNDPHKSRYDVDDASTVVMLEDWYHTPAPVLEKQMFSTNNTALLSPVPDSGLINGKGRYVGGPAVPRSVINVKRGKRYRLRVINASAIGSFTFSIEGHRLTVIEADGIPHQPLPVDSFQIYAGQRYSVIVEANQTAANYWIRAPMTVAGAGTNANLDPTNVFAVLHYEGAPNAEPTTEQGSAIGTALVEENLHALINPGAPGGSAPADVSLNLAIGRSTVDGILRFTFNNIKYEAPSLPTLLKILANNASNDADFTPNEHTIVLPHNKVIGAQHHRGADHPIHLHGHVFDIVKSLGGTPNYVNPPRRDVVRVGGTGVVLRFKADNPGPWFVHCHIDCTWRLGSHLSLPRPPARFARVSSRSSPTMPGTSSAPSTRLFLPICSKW
Protocol: (§1) The absorbance at 530 nm is measured over time in a UV-VIS spectrophotometer. One laccase unit (LACU) is defined as the amount of enzyme which oxidizes one µmole of substrate per minute at 30°C.
(§2) Km and kcat are obtained from the initial rate (v), enzyme concentration (E), and substrate concentration (S) in accordance to the equation v = kcat ES/( Km + S) by non-linear regression fitting using the Prizm program (GraphPad, San Diego, CA). […] The O2 concentration in air-saturated buffer solution is assumed as the same in plain water (0.28 mM).

[2] = target: T2, Myceliophthora thermophila laccase (MtL, lcc-1), wild type (pRaMB17), SEQ ID NOS:26 and 27 (Thermothelomyces thermophilus, UniProt G2QG31); test: Laccase substrate oxidation kinetics (Km, kcat), MtL wild type; format: biochemical; settings: 8 mM MES-NaOH buffer, pH 5.3, spectroscopic
T2 sequence (G2QG31 48-602): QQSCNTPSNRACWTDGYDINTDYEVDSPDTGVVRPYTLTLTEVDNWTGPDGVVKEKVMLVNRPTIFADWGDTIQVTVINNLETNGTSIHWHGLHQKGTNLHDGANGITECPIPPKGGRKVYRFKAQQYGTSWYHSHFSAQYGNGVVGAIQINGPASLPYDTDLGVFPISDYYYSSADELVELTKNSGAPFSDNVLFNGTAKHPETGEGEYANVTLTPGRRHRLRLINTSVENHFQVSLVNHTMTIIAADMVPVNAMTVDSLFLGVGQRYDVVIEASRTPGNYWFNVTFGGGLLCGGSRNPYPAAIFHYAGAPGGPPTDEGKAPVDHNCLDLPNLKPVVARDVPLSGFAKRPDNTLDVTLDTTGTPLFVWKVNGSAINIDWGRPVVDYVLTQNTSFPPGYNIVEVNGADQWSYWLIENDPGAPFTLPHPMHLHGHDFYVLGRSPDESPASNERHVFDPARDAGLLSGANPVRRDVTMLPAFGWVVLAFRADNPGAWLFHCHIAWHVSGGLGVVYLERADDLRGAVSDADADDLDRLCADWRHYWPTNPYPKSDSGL
Protocol: as §1, §2

[3] = target: T3, Myceliophthora thermophila laccase (MtL) mutant "T", V509L/S510E/G511A (pBANe22T) (Thermothelomyces thermophilus, UniProt G2QG31, G554A/S553E/V552L); test: Laccase substrate oxidation kinetics (Km, kcat), MtL mutant "T"; format: biochemical; settings: read-out: Km (ABTS); 8 mM MES-NaOH buffer, pH 5.3; spectroscopic
T3 sequence (G2QG31 48-602 V552L/S553E/G554A): T2 sequence (G2QG31 48-602)
Protocol: as §1, §2

[4] = system: COc1cc(C=NN=Cc2cc(OC)c(O)c(OC)c2)cc(OC)c1O; test: as above; format: biochemical, Myceliophthora thermophila; settings: other: 8 mM MES-NaOH buffer, pH 5.3, spectroscopic
Protocol: as §1, §2

Compound: CCn1c(=NN=c2sc3cc(S(=O)(=O)O)ccc3n2CC)sc2cc(S(=O)(=O)O)ccc21 [ABTS, 2,2'-azinobis(3-ethylbenzthiazoline-6-sulfonic acid)]
- Km [1]: 52 ± 6 µM
- Km ([2]; read-out: Km (ABTS)): 110 ± 20 µM
- Km [3]: 11 ± 2 µM

Compound: COc1cc(C=NN=Cc2cc(OC)c(O)c(OC)c2)cc(OC)c1O [SGZ, syringaldazine]
- kcat (SGZ) [2]: 75 ± 3.33 s⁻¹
- Km ([2]; read-out: Km (SGZ)): 1.4 ± 0.2 µM

Compound: Myceliophthora thermophila laccase (MtL) mutant "T", V509L/S510E/G511A (pBANe22T) (Thermothelomyces thermophilus ATCC 42464; G554A/S553E/V552L)
- Km [4]: 0.9 ± 0.2 µM
- kcat [4]: 6 ± 0.333 s⁻¹
